The results in this text go back to patent US7504415B2, “Therapeutic agent for glomerular disease” (Kowa Co., Ltd., priority 2001, dated 2009).

One data set has as its system Slc: Wistar rats. In words: Acute toxicity test. The class given is in vivo, rat. The method, then: Slc: Wistar rats (5 male rats and 5 female rats, 6 weeks old, purchased from Japan SLC Co., Ltd.) were subjected to fasting overnight. After fasting, compound A which had been suspended in an aqueous 0.5% sodium carboxymethyl cellulose solution was perorally administered in a forced manner to each male rat (500 mg/kg) and each female rat (250 mg/kg).

The next data set deals with Human mensagial cells. Briefly: Mensagial matrix (PIP) production inhibition test, TGF-β1-stimulated, ELISA. The settings on record: TGF-β1 10 ng/mL stimulation, 72 hours culture, PIP by ELISA, read-out: PIP production inhibitory activity (IC50). The class given is cell-based. Here is the method:
(1) Culture and Storage of Human Mensagial Cells
Human mensagial cells (normal human mensagial cells, CryoNHMC, product of Sanko Junyaku Co., Ltd.) were cultured in MsGM medium (15 mL/flask) by use of two 75-cm^2 flasks (430720, CORNING). The medium was replaced with fresh medium every 2 to 3 days. Subsequently, the culture was scaled up to a 225-cm^2 flask (3000, COSTER) level, and three vials of passage 5 and 27 vials of passage 6 were prepared at a cell count of 5×10^6 cells/Cell Banker 1 mL/vial (430659, CORNING). The thus-cultured cell samples were stored in a container cooled by liquid nitrogen.
(2) Determination of Mansagial Matrix Production Inhibitory Activity
Cryopreserved human mensagial cells of passage 6 were revived and sown in a medium placed in a 75-cm^2 flask. The medium was replaced the next day, and incubation was continued for three more days. The thus-cultured cells were treated with 0.25% trypsin-0.02% EDTA. […] After completion of culturing, the PIP level of each culture liquid was determined through ELISA by use of a PIP determination kit (product of TAKARA). The percent inhibition (%) was calculated in accordance with the following equation, and the PIP production inhibitory activity (IC50 value) was derived from the percent inhibition. […]

Data set [1] deals with renal failure model (5/6 nephrectomized) rats. Briefly: Renal failure model (5/6 nephrectomized) rats. In kind it is in vivo, rat. To be noted: 15 mg/kg perorally once a day. From the text: Male Wistar rats (10 weeks old, 300 to 350 g, purchased from Japan SLC Co., Ltd.) were anesthetized with pentobarbital, and the right kidney of each rat was extirpated. Subsequently, the left kidney was exposed. Under a stereoscopic microscope, two of the left renal artery branches (generally, one renal artery is separated into three branches) were ligated and one central branch was left intact, to thereby provide a 5/6 nephrectomized rat. When a renal artery branch is ligated, a portion controlled by the branch falls into ischemia, and such ischemic renal portion can be visually detected. The thus-produced renal failure models were evaluated in terms of increase in blood urea nitrogen level (BUN) one day after the ligation.
The rats were divided into three groups such that the BUN level (one day after ligation) of the groups were equalized, and compound A was administered to each rat of the groups. The groups consisted of a normal rat group (N=5); a 5/6 nephphrectomized and drug-untreated group (control: N=8); and a 5/6 nephrectomized and compound-A-administered group (15 mg/kg: N=8). […] The (total protein)/creatinine ratio (UP/Ucr) in a urine sample and the BUN level were determined on days 7, 14, 21, 28, and 35 after ligation.

Data set [2] deals with progressive anti-Thy-1 nephritic rat. In words: Pharmacological test using progressive anti-Thy-1 nephritic rats. In kind it is in vivo. To be noted: 20 mg/kg perorally once/day, 10 weeks. The method, then:
(1) Wistar female rats (5 weeks old, purchased from Japan SLC Co., Ltd.) were quarantined and acclimatized for four days, and used for the test. First, the right kidney of each rat was removed through flank incision under anesthesia with pentobarbital. Two weeks after removal of the right kidney, an anti-Thy-1 antibody (anti-mesangial-cell antibody/monoclonal antibody 1-22-3; purchased from Panafarm Laboratories Co., Ltd.) was intravenously administered (500 μg/rat) into the tail vein, whereby progressive anti-Thy-1 nephritis was induced. Immediately thereafter, compound A which had been suspended in an aqueous 0.5% sodium carboxymethyl cellulose solution was perorally administered via a peroral probe to each rat in a forced and continuous manner (20 mg/kg body weight, once/day, 10 weeks). After completion of 10 weeks' administration of compound A, urine was taken from each rat for 18 hours in a metabolic cage (Sugiyama Gen Co., Ltd.), and the total amount of protein excreted into the urine was determined.
(2) After completion of the urine analysis, the left kidney was extirpated from each rat, fixed in formalin, and embedded with paraffin. A thin slice obtained from the thus-treated kidney was stained with hematoxylin and eosin (HE), and observed under a stereoscopic microscope. […] The ratio was evaluated on the basis of the following classification. […]

With “monocalcium (+)-bis[(3R, 5S, 6E)-7-[2-cyclopropyl-4-(4-fluorophenyl)-3-quinolyl]-3,5-dihydroxy-6-heptenoate] [compound A]”, the “death during observation period of 14 days” value is reported as “no case of death” in the data set on Slc: Wistar rats (female rats, 250 mg/kg single peroral dose after overnight fasting) and “no case of death” in the data set on Slc: Wistar rats (male rats, 500 mg/kg single peroral dose after overnight fasting). The IC50 in the data set with Human mensagial cells came to 22.4 µM. Moreover, the “blood urea nitrogen (BUN) level” value in data set [1] (after week 4, FIG. 4) is listed as “significant decrease”. For the same substance, in data set [1] (weeks 7 and 8 after administration, vs drug-untreated group, FIG. 3), the “(total protein)/creatinine ratio (UP/Ucr) in urine” value was “significantly decreases”. In addition, the “total amount of protein excreted into urine (18 hours)” value in data set [2] (FIG. 1) is given as “significantly lowered”. In data set [2] (FIG. 2), the “lesions occurring in the malpighian tubes and stroma (tubulointerstitial damage score, HE staining)” value is “significantly inhibited”.
